# Like-named read-outs stand apart in the source and are kept apart here.
# Assays:
# Experiment in all cases: Kinetic assays of purified pNB esterase on ester substrates in DMF/PIPES
# Assay type in all cases: biochemical
# [1] = molecular target: T1, Bacillus subtilis para-nitrobenzyl esterase variant 1-1H9 (incl. Tyr 370 Phe), SEQ. ID. NO. 4 (Bacillus subtilis, UniProt P37967, form not given/H322R/Y370F); details: 0.1 M PIPES pH 7.0, 30° C.
# Method: (§1) FIG. 8a is a plot of variant and wild type pNB esterase reaction kinetics on pNPA in aqueous buffer (0% dimethylformamide). Enzymes were added to a 30° C. reaction solution consisting of 0.1 M PIPES (pH 7.0) and varying concentrations of pNPA.
# (§2) FIG. 8b is a plot of variant and wild type pNB esterase reaction kinetics on pNPA in 15% DMF. Enzymes were added to a 30° C. reaction solution consisting of 0.1 M PIPES (pH 7.0), 15% DMF, and varying concentrations of pNPA.
# (§3) FIG. 8c is a plot of variant and wild type pNB esterase reaction kinetics on pNPA in 30% DMF. Enzyme were added to a 30° C. reaction solution consisting of 0.1 M PIPES (pH 7.0), 30% DMF, and varying concentrations of pNPA.
# (§4) FIG. 9a is a plot of variant wild type pNB esterase kinetics on LCN-pNP in 1% DMF. Enzymes listed were added to a 30° C. reaction solution consisting of 0.1 M PIPES (pH 7.0), 1% DMF, and varying concentrations of LCN-pNP.
# (§5) FIG. 9b is a plot of variant and wild type pNB esterase reaction kinetics on LCN-pNP in 15% DMF. Enzymes were added to a 30° C. reaction solution consisting of 0.1 M PIPES (pH 7.0), 15% DMF, and varying concentrations of LCN-pNP.
# (§6) FIG. 9c is a plot of variant and wild type pNB esterase reaction kinetics on LCN-pNP in 30% DMF. Enzymes were added to a 30° C. reaction solution consisting of 0.1 M PIPES (pH 7.0), 30% DMF, and varying concentrations of LCN-pNP.
# (§7) FIG. 10a is a plot of variant and wild type pNB esterase reaction kinetics on LCN-pNB in 1% DMF. Enzymes were added to a 30° C. reaction solution consisting of 0.1 M PIPES (pH 7.0), 1% DMF, and varying concentrations of LCN-pNB.
# (§8) FIG. 10b is a plot of variant and wild type pNB esterase reaction kinetics on LCN-pNB in 15% DMF. Enzyme were added to a 30° C. reaction solution consisting of 0.1 M PIPES (pH 7.0), 15% DMF, and varying concentrations of LCN-pNB.
# Bacteria expressing seven pNB esterases, O-WT (SEQ. ID. NO. 2), 1-1H9, 2-19E10, 3-10C4, 4-38B9, 4-43E7, and 4-54B9, were grown in on cultures, and the enzymes were purified. These purified enzymes were assayed for their ability to hydrolyze the different ester substrates in the presence of various concentrations of DMF.
# (§9) Kinetic assays were performed on three substrates: pNPA, LCN-pNP, and p-nitrobenzyl loracarbef nucleus (LCN-pNB). For pNPA and LCN-pNP substrates, final concentrations varying from 0.0625 mM to 16 mM and 0, 15, and 30% DMF in 0.1 M PIPES (pH 7.0) were combined with equal volumes of enzyme samples. These samples were mixed simultaneously in a 96 well plate and monitored with the 96 well plate reader. The absorbance values were recorded, linearly regressed, and then used for calculating kinetic parameters. For the LCN-pNB substrate, final concentrations varying from 0.0156 mM to 8.0 mM and 0, 15 and 30% DMF in PIPES (pH 7.0) were combined with enzyme samples in a quartz cuvette and were measured in a spectrophotometer at 289 nm. All assays were measured in triplicate.
# [2] = molecular target: T1, Bacillus subtilis para-nitrobenzyl esterase variant 1-1H9 (incl. Tyr 370 Phe), SEQ. ID. NO. 4; details: 0% DMF, 0.1 M PIPES pH 7.0, 30° C.
# [3] = molecular target: Bacillus subtilis para-nitrobenzyl esterase variant 4-38B9 (3-10C4 plus Ile 60 Val), SEQ. ID. NO. 10 (Bacillus subtilis, UniProt P37967, form not given/H322R/I60V/L144M/M358V/Y370F); details: 0.1 M PIPES pH 7.0, 30° C.
# Bacillus subtilis para-nitrobenzyl esterase variant 4-38B9 (3-10C4 plus Ile 60 Val), SEQ. ID. NO. 10, sequence (P37967 other isoform, or with tags, fused parts or gaps with the stated changes, form open): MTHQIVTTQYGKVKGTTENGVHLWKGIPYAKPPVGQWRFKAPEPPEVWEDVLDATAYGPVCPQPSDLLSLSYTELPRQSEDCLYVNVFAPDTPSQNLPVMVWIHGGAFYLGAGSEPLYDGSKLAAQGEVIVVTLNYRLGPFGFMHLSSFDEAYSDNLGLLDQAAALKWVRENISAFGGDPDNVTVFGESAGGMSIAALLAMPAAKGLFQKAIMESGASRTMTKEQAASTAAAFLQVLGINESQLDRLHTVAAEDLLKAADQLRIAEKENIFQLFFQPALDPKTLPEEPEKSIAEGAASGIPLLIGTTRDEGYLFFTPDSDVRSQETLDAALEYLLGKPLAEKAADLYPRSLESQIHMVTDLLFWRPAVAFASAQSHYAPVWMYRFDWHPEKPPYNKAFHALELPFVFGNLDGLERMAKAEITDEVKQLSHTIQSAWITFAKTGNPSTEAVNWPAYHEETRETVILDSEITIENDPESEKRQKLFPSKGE
# Method: as §1, §2, §3, §4, §5, §6, §7, §8
# (§10) Bacteria expressing seven pNB esterases, O-WT (SEQ. ID. NO. 2), 1-1H9, 2-19E10, 3-10C4, 4-38B9, 4-43E7, and 4-54B9, were grown in on cultures, and the enzymes were purified. These purified enzymes were assayed for their ability to hydrolyze the different ester substrates in the presence of various concentrations of DMF. FIGS. 8a, b and c show the specific reaction rates on pNPA as a function of pNPA substrate concentration for this series of evolved variants from the four generations of mutagenesis and screening. […] The wild type enzyme outperforms 1-1H9 in purely aqueous buffer (FIG. 8a). The actual screening, however, was performed in the presence of DMF, and in 15 and 30% DMF, 1-1H9 has higher specific activity towards pNPA than wild type (FIGS. 8b and 8c). Similar trends are seen for the remaining variants assayed on this substrate. […] In 30% DMF, wild type drops still further relative to the pNB esterase variants. Variants 4-38B9 and 4-43E7, presumably by virtue of having been screened in DMF for four rounds of mutagenesis, are the best performers in 30% DMF.
# (§11) DMF dramatically increases KM while also decreasing kcat. For the LCN substrates, the mutations accumulated during directed evolution mitigate the increased KM. […] At substrate concentrations […], increased specific activity will result mainly from improvements in kcat. These improvements are the most useful for enzymes intended to be used for transformations in high substrate concentrations.
# as §9, with “For the LCN-pNB substrate, final concentrations varying from 0.0156 mM to 8.0 mM and 0, 15 and 30% DMF in PIPES (pH 7.0) were combined with enzyme samples in a quartz cuvette and were measured in a spectrophotometer at 289 nm. All assays were measured in triplicate.” left out
# [4] = molecular target: Bacillus subtilis para-nitrobenzyl esterase variant 3-10C4 (2-19E10 plus Leu 144 Met), SEQ. ID. NO. 8 (Bacillus subtilis, UniProt P37967, form not given/H322R/L144M/M358V/Y370F); details: 0.1 M PIPES pH 7.0, 30° C.
# Bacillus subtilis para-nitrobenzyl esterase variant 3-10C4 (2-19E10 plus Leu 144 Met), SEQ. ID. NO. 8, sequence (P37967 other isoform, or with tags, fused parts or gaps with the stated changes, form open): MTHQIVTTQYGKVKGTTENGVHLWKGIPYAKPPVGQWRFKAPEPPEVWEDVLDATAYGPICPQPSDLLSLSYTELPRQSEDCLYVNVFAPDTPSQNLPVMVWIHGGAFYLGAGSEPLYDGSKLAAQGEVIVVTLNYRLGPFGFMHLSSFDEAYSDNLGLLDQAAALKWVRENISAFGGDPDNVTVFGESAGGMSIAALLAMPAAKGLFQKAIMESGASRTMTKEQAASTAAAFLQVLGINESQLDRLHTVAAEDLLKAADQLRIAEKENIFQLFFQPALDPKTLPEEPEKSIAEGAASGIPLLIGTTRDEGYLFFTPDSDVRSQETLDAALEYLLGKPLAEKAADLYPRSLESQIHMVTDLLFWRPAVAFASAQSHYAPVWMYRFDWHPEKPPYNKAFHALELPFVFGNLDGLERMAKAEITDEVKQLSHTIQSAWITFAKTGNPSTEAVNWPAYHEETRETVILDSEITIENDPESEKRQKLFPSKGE
# Method: as §1, §2, §3, §4, §5, §6, §7, §8, §10, §11
# as §9, with “For the LCN-pNB substrate, final concentrations varying from 0.0156 mM to 8.0 mM and 0, 15 and 30% DMF in PIPES (pH 7.0) were combined with enzyme samples in a quartz cuvette and were measured in a spectrophotometer at 289 nm. All assays were measured in triplicate.” left out
# [5] = molecular target: Bacillus subtilis para-nitrobenzyl esterase variant 4-43E7 (3-10C4 plus Leu 334 Val and one more substitution), SEQ. ID. NO. 12 (Bacillus subtilis, UniProt P37967, form not given/H322R/L144M/L334V/M358V/S94G/Y370F); details: 0.1 M PIPES pH 7.0, 30° C.
# Bacillus subtilis para-nitrobenzyl esterase variant 4-43E7 (3-10C4 plus Leu 334 Val and one more substitution), SEQ. ID. NO. 12, sequence (P37967 other isoform, or with tags, fused parts or gaps with the stated changes, form open): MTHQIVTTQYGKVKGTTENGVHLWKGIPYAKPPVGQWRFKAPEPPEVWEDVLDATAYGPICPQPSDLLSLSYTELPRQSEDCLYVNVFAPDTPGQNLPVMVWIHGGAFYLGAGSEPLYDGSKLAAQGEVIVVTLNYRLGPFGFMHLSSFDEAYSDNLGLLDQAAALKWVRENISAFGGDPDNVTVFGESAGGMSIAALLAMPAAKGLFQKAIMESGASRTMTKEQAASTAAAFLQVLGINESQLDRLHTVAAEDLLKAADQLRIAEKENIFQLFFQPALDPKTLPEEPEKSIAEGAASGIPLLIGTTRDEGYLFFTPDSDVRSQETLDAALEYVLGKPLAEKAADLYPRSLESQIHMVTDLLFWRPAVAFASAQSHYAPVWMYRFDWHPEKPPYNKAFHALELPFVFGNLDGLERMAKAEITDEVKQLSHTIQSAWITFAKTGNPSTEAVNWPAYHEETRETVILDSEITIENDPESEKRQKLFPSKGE
# Method: as §1, §2, §3, §4, §5, §6, §7, §8, §10, §11
# as §9, with “For the LCN-pNB substrate, final concentrations varying from 0.0156 mM to 8.0 mM and 0, 15 and 30% DMF in PIPES (pH 7.0) were combined with enzyme samples in a quartz cuvette and were measured in a spectrophotometer at 289 nm. All assays were measured in triplicate.” left out
# [6] = molecular target: Bacillus subtilis para-nitrobenzyl esterase (pNB esterase), wild type 0-WT, SEQ. ID. NO. 2 (Bacillus subtilis, UniProt P37967); details: 0.1 M PIPES pH 7.0, 30° C.
# Bacillus subtilis para-nitrobenzyl esterase (pNB esterase), wild type 0-WT, SEQ. ID. NO. 2, sequence (P37967 whole entry K23L/S59P/K95Q/N150D/S230A/G242S/K246R/S251A/A291S/V343A/K390E/L463V): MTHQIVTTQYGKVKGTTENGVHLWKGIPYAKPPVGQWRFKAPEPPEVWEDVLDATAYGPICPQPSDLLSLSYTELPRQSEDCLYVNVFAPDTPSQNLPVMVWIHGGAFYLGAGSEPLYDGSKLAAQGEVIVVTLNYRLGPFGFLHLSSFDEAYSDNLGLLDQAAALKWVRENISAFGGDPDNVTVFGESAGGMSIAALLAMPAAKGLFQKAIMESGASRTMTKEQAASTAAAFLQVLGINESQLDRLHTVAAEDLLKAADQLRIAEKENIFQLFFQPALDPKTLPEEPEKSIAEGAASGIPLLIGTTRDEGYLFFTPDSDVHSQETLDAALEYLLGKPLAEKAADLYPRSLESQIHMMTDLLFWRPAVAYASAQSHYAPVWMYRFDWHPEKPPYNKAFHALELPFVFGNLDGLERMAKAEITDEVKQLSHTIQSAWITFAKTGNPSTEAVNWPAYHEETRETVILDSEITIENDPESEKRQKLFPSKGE
# Method: as §1, §2, §3, §4, §5, §6, §7, §8, §10, §11
# as §9, with “For the LCN-pNB substrate, final concentrations varying from 0.0156 mM to 8.0 mM and 0, 15 and 30% DMF in PIPES (pH 7.0) were combined with enzyme samples in a quartz cuvette and were measured in a spectrophotometer at 289 nm. All assays were measured in triplicate.” left out
# [7] = molecular target: Bacillus subtilis para-nitrobenzyl esterase variant 4-54B9 (3-10C4 plus Leu 334 Ser and one more substitution), SEQ. ID. NO. 14 (Bacillus subtilis, UniProt P37967, form not given/H322R/K267R/L144M/L334S/M358V/Y370F); details: for kcat (p-nitrophenyl loracarbef nucleus) / Km / kcat (p-nitrobenzyl loracarbef nucleus): 0.1 M PIPES pH 7.0, 30° C.
# Bacillus subtilis para-nitrobenzyl esterase variant 4-54B9 (3-10C4 plus Leu 334 Ser and one more substitution), SEQ. ID. NO. 14, sequence (P37967 other isoform, or with tags, fused parts or gaps with the stated changes, form open): as the sequence (P37967 whole entry K23L/S59P/K95Q/N150D/S230A/G242S/K246R/S251A/A291S/V343A/K390E/L463V) above, with L144M, K267R, H322R, L334S, M358V, Y370F counted along it
# Method: as §1, §2, §3, §4, §5, §6, §7, §8, §10, §11
# as §9, with “For the LCN-pNB substrate, final concentrations varying from 0.0156 mM to 8.0 mM and 0, 15 and 30% DMF in PIPES (pH 7.0) were combined with enzyme samples in a quartz cuvette and were measured in a spectrophotometer at 289 nm. All assays were measured in triplicate.” left out
# [8] = molecular target: Bacillus subtilis para-nitrobenzyl esterase variant 2-19E10 (1-1H9 substitutions plus Met 358 Val), SEQ. ID. NO. 6 (Bacillus subtilis, UniProt P37967, form not given/H322R/M358V/Y370F); details: 0.1 M PIPES pH 7.0, 30° C.
# Bacillus subtilis para-nitrobenzyl esterase variant 2-19E10 (1-1H9 substitutions plus Met 358 Val), SEQ. ID. NO. 6, sequence (P37967 whole entry K23L/S59P/K95Q/N150D/S230A/G242S/K246R/S251A/A291S/H322R/V343A/M358V/Y370F/K390E/L463V, form open): as the sequence (P37967 whole entry K23L/S59P/K95Q/N150D/S230A/G242S/K246R/S251A/A291S/V343A/K390E/L463V) above, with H322R, M358V, Y370F counted along it
# Method: as §1, §2, §3, §4, §5, §6, §7, §8, §10, §11
# as §9, with “For the LCN-pNB substrate, final concentrations varying from 0.0156 mM to 8.0 mM and 0, 15 and 30% DMF in PIPES (pH 7.0) were combined with enzyme samples in a quartz cuvette and were measured in a spectrophotometer at 289 nm. All assays were measured in triplicate.” left out
# [9] = 15% DMF, read-out: Km (p-nitrophenyl loracarbef nucleus)
# [10] = 30% DMF, read-out: Km (p-nitrophenyl loracarbef nucleus)
# [11] = 0% DMF, read-out: Km (p-nitrophenyl loracarbef nucleus)
# [12] = 15% DMF, read-out: Km (p-nitrobenzyl loracarbef nucleus)
# [13] = 0% DMF, read-out: Km (p-nitrobenzyl loracarbef nucleus)
# [14] = 15% DMF, on LCN-pNB, relative to wild type
# T1 sequence (P37967 whole entry K23L/S59P/K95Q/N150D/S230A/G242S/K246R/S251A/A291S/H322R/V343A/Y370F/K390E/L463V, form open): as the sequence (P37967 whole entry K23L/S59P/K95Q/N150D/S230A/G242S/K246R/S251A/A291S/V343A/K390E/L463V) above, with H322R, Y370F counted along it
smiles,measurement,setting,value
NC1C(=O)N2C(C(=O)Oc3ccc([N+](=O)[O-])cc3)=C(Cl)CCC12 (stereo not drawn) [p-nitrophenyl loracarbef nucleus],kcat (p-nitrophenyl loracarbef nucleus),[1]; 15% DMF,0.07
same,Km,[1]; [9],1840 µM
same,kcat (p-nitrophenyl loracarbef nucleus),[1]; 30% DMF,0.021
same,Km,[1]; [10],6050 µM
same,kcat (p-nitrophenyl loracarbef nucleus),[2],0.08
same,Km,[2]; read-out: Km (p-nitrophenyl loracarbef nucleus),30 µM
same,kcat (p-nitrophenyl loracarbef nucleus),[3]; 0% DMF,0.39
same,Km,[3]; [11],60 µM
same,kcat (p-nitrophenyl loracarbef nucleus),[3]; 15% DMF,0.25
same,Km,[3]; [9],1410 µM
same,kcat (p-nitrophenyl loracarbef nucleus),[3]; 30% DMF,0.067
same,Km,[3]; [10],5680 µM
same,kcat (p-nitrophenyl loracarbef nucleus),[4]; 0% DMF,0.35
same,Km,[4]; [11],110 µM
same,kcat (p-nitrophenyl loracarbef nucleus),[4]; 15% DMF,0.21
same,Km,[4]; [9],1770 µM
same,kcat (p-nitrophenyl loracarbef nucleus),[4]; 30% DMF,0.044
same,Km,[4]; [10],5180 µM
same,kcat (p-nitrophenyl loracarbef nucleus),[5]; 0% DMF,0.67
same,Km,[5]; [11],80 µM
same,kcat (p-nitrophenyl loracarbef nucleus),[5]; 15% DMF,0.40
same,Km,[5]; [9],1270 µM
same,kcat (p-nitrophenyl loracarbef nucleus),[5]; 30% DMF,0.094
same,Km,[5]; [10],5090 µM
same,kcat (p-nitrophenyl loracarbef nucleus),[6]; 0% DMF,0.14
same,Km,[6]; [11],70 µM
same,kcat (p-nitrophenyl loracarbef nucleus),[6]; 15% DMF,0.10
same,Km,[6]; [9],2360 µM
same,kcat (p-nitrophenyl loracarbef nucleus),[6]; 30% DMF,0.024
same,Km,[6]; [10],7550 µM
same,kcat (p-nitrophenyl loracarbef nucleus),[7]; 0% DMF,1.44
same,Km,[7]; [11],120 µM
same,kcat (p-nitrophenyl loracarbef nucleus),[7]; 15% DMF,0.93
same,Km,[7]; [9],1270 µM
same,kcat (p-nitrophenyl loracarbef nucleus),[7]; 30% DMF,0.141
same,Km,[7]; [10],2920 µM
same,kcat (p-nitrophenyl loracarbef nucleus),[8]; 0% DMF,0.25
same,Km,[8]; [11],90 µM
same,kcat (p-nitrophenyl loracarbef nucleus),[8]; 15% DMF,0.12
same,Km,[8]; [9],1500 µM
same,kcat (p-nitrophenyl loracarbef nucleus),[8]; 30% DMF,0.023
same,Km,[8]; [10],4670 µM
NC1C(=O)N2C(C(=O)OCc3ccc([N+](=O)[O-])cc3)=C(Cl)CCC12 (stereo not drawn) [p-nitrobenzyl loracarbef nucleus],kcat (p-nitrobenzyl loracarbef nucleus),[1]; 15% DMF,0.69
same,Km,[1]; [12],850 µM
same,kcat (p-nitrobenzyl loracarbef nucleus),[2],1.94
same,Km,[2]; read-out: Km (p-nitrobenzyl loracarbef nucleus),40 µM
same,kcat (p-nitrobenzyl loracarbef nucleus),[3]; 0% DMF,8.51
same,Km,[3]; [13],40 µM
same,kcat (p-nitrobenzyl loracarbef nucleus),[3]; 15% DMF,1.89
same,Km,[3]; [12],310 µM
same,kcat (p-nitrobenzyl loracarbef nucleus),[4]; 0% DMF,6.53
same,Km,[4]; [13],70 µM
same,kcat (p-nitrobenzyl loracarbef nucleus),[4]; 15% DMF,1.62
same,Km,[4]; [12],400 µM
same,kcat (p-nitrobenzyl loracarbef nucleus),[5]; 0% DMF,9.13
same,Km,[5]; [13],30 µM
same,kcat (p-nitrobenzyl loracarbef nucleus),[5]; 15% DMF,3.02
same,Km,[5]; [12],370 µM
same,kcat (p-nitrobenzyl loracarbef nucleus),[6]; 0% DMF,1.64
same,Km,[6]; [13],40 µM
same,kcat (p-nitrobenzyl loracarbef nucleus),[6]; 15% DMF,0.54
same,Km,[6]; [12],880 µM
same,kcat (p-nitrobenzyl loracarbef nucleus),[7]; 0% DMF,18.96
same,Km,[7]; [13],50 µM
same,kcat (p-nitrobenzyl loracarbef nucleus),[7]; 15% DMF,6.84
same,Km,[7]; [12],460 µM
same,KM change from wild type to 4-54B9,[7]; [14],decreases by less than a factor of two
same,kcat increase from wild type to 4-54B9,[7]; [14],more than 9 fold
same,kcat (p-nitrobenzyl loracarbef nucleus),[8]; 0% DMF,4.59
same,Km,[8]; [13],40 µM
same,kcat (p-nitrobenzyl loracarbef nucleus),[8]; 15% DMF,1.81
same,Km,[8]; [12],870 µM

# From patent US5945325A, “Thermally stable para-nitrobenzyl esterases” (priority 1998, dated 1999)
